Legend:
Ps0 patients [1] = details: cited from earlier work
Ps0 patients [2] = test: Ps0 study in anti-IL-17 treatment groups: serum IL-19 and PASI; format: in vivo, human; details: for number of patients achieving at least PASI 75: title: week 16, head: Week 2
Description: (§1) According to an exemplified embodiment, a sandwich ELISA assay for the sensitive detection of IL-19 is provided herein. According to an exemplified embodiment, a first IL-19 antibody (selected from Table 1, 2 or 3) is utilized as an IL-19 capture antibody and a second IL-19 antibody (selected from Table 1, 2 or 3) is utilized as an IL-19 reporter antibody. […] According to some embodiments, one milligram of the first IL-19 antibody (the capture antibody) is biotinylated using Pierce biotinylation kit (Cat #) and one milligram of the second IL-19 antibody (the reporter antibody) is labeled with ruthenium using MesoScale Discovery (MSD) kit for electrochemiluminescent (ECL) detection. According to such embodiment, labeled antibodies are evaluated using MALDI-TOF to ensure suitable labeling, and then diluted in 50% glycerol and stored at −20° C. prior to use.
(§2) Streptavidin-coated 96-well MSD plates are washed three times with TBST (Tris buffered saline containing 10 mmol/L Tris pH 7.40, 150 mmol/L NaCl with 1 mL Tween 20/L) and then blocked with TBS-T plus 1% BSA for 1 hour at room temperature. Plates are again washed and wells are then incubated with biotinylated IL-19 capture antibody (1 mg/L) for 1 hour. Thereafter, plates are again washed prior to patient sample testing.
(§3) During patient sample testing, a standard curve is generated using 50 μL of recombinant human IL-19 control standard (serially diluted IL-19 recombinant protein ranging from 100-0.0001 ng/L, and including a zero blank, in assay buffer of 50 mmol/L HEPES, pH 7.40, 150 mmol/L NaCl, 10 mL/L Triton X-100, 5 mmol/L EDTA, and 5 mmol/L EGTA). […] Patient samples (which, according to the present invention, may include blood, serum or plasma) are diluted 1:4 in assay buffer and added to respective wells. The plate is incubated overnight at 4° C. Following incubation, wells are aspirated and washed 3 times with TBST. Thereafter, 50 μL of ruthenium-labeled IL-19 detection antibody (0.5 mg/L) is added to the wells for a 1-hour incubation at room temperature. Following incubation, wells are aspirated and washed 3 times with TBST. Thereafter, 150 μl of 2×MSD read buffer is added. Ruthenium electrochemiluminescence in the wells is detected using a MSD Sector 6000 plate reader. Data is analyzed and IL-19 MSD immunoassay calibration curve fitting is performed using MesoScale Discovery software. SAS® software version 9.4 (PROC MIXED) is used for assessing treatment effects on IL-19 levels using a mixed effects model with an unstructured covariance matrix and log10 transformed IL-19 concentrations (SAS. Version 9.4 for UNIX; SAS Institute Inc.: Cary, N.C., 2016). Statistical analysis is generated with the ggplot and pROC packages using R version 3.3.3 statistical computing environment (www.R-project.org, Vienna, Austria, 2017).
The study includes five treatment group doses of: 10 mg (n=24), 25 mg (n=23), 75 mg (n=26), or 150 mg (n=28) of ixekizumab or placebo (n=24). Administration of all treatment doses is subcutaneous, and doses are administered starting at week 0 and every 2 weeks thereafter up to week 16 (inclusive).

PsA patients = test: PsA study in anti-IL-17 treatment groups: serum IL-19 and PASI; format: in vivo, human; details: for IL-19 (geometric mean) serum levels: subcutaneous
Description: as §1, §2, §3
A study of IL-19 levels, in serum of 309 PsA patients treated with a therapeutic antibody targeting IL-17, ixekizumab, is performed. The study includes three treatment groups: (i.) anti-IL-17 treatment group, administered ixekizumab 160 mg at baseline followed by an 80 mg dose administered every two weeks thereafter for 12 weeks (n=103); (ii.) anti-IL-17 treatment group, administered ixekizumab 160 mg at baseline followed by an 80 mg dose administered every four weeks thereafter for 12 weeks (n=107); or (iii.) placebo (n=105). Administration of all treatment doses is subcutaneous. […] Serum IL-19 concentration levels are presented in Table 21; week 4 and 12 PASI prognostic values showing correlations of IL-19 serum levels and PASI in patients (21 ng/L, indicates the upper limit of the normal range of IL-19 in healthy subjects) are presented in Tables 22 and 23, respectively.

[3] = 10 mg subcutaneous every 2 weeks, week 16
[4] = 25 mg subcutaneous every 2 weeks, week 16
[5] = 75 mg subcutaneous every 2 weeks, week 16
[6] = 150 mg subcutaneous every 2 weeks, week 16
[7] = Q2W, IL-19 at week 4 and PASI at week 12
[8] = Q2W, IL-19 at week 12 and PASI at week 12
[9] = Q4W, IL-19 at week 4 and PASI at week 12
[10] = Q4W, IL-19 at week 12 and PASI at week 12

ixekizumab
patients achieved a 75% reduction in PASI score (PASI 75) (Ps0 patients [1]): 90% | IL-19 serum levels (geometric mean) (Ps0 patients [2]; 10 mg subcutaneous every 2 weeks, Week 0 (baseline)): 111.6 pg/mL | IL-19 serum levels (geometric mean) (Ps0 patients [2]; 10 mg subcutaneous every 2 weeks, Week 2): 45.3 pg/mL | number of patients achieving at least PASI 75 (Ps0 patients [2]; 10 mg subcutaneous every 2 weeks, n = 19): 5 | % of patients with serum IL-19 concentration ≤ 21 pg/mL (Ps0 patients [2]; [3]): 42.1% (8/19) | % patients with serum IL-19 concentration ≤ 21 pg/mL achieving at least PASI 75 (Ps0 patients [2]; [3]): 62.5% (5/8) | % patients with serum IL-19 concentration ≤ 21 pg/mL not achieving at least PASI 75 (Ps0 patients [2]; [3]): 37.5% (3/8)^ | IL-19 serum levels (geometric mean) (Ps0 patients [2]; [3]): 57.3 pg/mL | IL-19 serum levels (geometric mean) (Ps0 patients [2]; 25 mg subcutaneous every 2 weeks, Week 0 (baseline)): 89.0 pg/mL | IL-19 serum levels (geometric mean) (Ps0 patients [2]; 25 mg subcutaneous every 2 weeks, Week 2): 22.3 pg/mL | number of patients achieving at least PASI 75 (Ps0 patients [2]; 25 mg subcutaneous every 2 weeks, n = 20): 16 | % of patients with serum IL-19 concentration ≤ 21 pg/mL (Ps0 patients [2]; [4]): 70% (14/20) | % patients with serum IL-19 concentration ≤ 21 pg/mL achieving at least PASI 75 (Ps0 patients [2]; [4]): 92.9% (13/14) | % patients with serum IL-19 concentration ≤ 21 pg/mL not achieving at least PASI 75 (Ps0 patients [2]; [4]): 7.1% (1/14) | IL-19 serum levels (geometric mean) (Ps0 patients [2]; [4]): 13.6 pg/mL | IL-19 serum levels (geometric mean) (Ps0 patients [2]; 75 mg subcutaneous every 2 weeks, Week 0 (baseline)): 86.7 pg/mL | IL-19 serum levels (geometric mean) (Ps0 patients [2]; 75 mg subcutaneous every 2 weeks, Week 2): 11.6 pg/mL | number of patients achieving at least PASI 75 (Ps0 patients [2]; 75 mg subcutaneous every 2 weeks, n = 24): 21 | % of patients with serum IL-19 concentration ≤ 21 pg/mL (Ps0 patients [2]; [5]): 91.7% (22/24)^ | % patients with serum IL-19 concentration ≤ 21 pg/mL achieving at least PASI 75 (Ps0 patients [2]; [5]): 86.4% (19/22) | % patients with serum IL-19 concentration ≤ 21 pg/mL not achieving at least PASI 75 (Ps0 patients [2]; [5]): 13.6% (3/22) | IL-19 serum levels (geometric mean) (Ps0 patients [2]; [5]): 9.4 pg/mL | IL-19 serum levels (geometric mean) (Ps0 patients [2]; 150 mg subcutaneous every 2 weeks, Week 0 (baseline)): 87.1 pg/mL | IL-19 serum levels (geometric mean) (Ps0 patients [2]; 150 mg subcutaneous every 2 weeks, Week 2): 13.9 pg/mL | number of patients achieving at least PASI 75 (Ps0 patients [2]; 150 mg subcutaneous every 2 weeks, n = 24): 22 | % of patients with serum IL-19 concentration ≤ 21 pg/mL (Ps0 patients [2]; [6]): 92% (23/25) | % patients with serum IL-19 concentration ≤ 21 pg/mL achieving at least PASI 75 (Ps0 patients [2]; [6]): 95% (19/20) | % patients with serum IL-19 concentration ≤ 21 pg/mL not achieving at least PASI 75 (Ps0 patients [2]; [6]): 5% (1/20) | IL-19 serum levels (geometric mean) (Ps0 patients [2]; [6]): 11.9 pg/mL | IL-19 (geometric mean) serum levels (PsA patients; Q2W: 160 mg at baseline, then 80 mg every two weeks, Week 0 (baseline)): 23.0 pg/mL | IL-19 (geometric mean) serum levels (PsA patients; Q2W: 160 mg at baseline, then 80 mg every two weeks, Week 4): 6.0 pg/mL | IL-19 (geometric mean) serum levels (PsA patients; Q2W: 160 mg at baseline, then 80 mg every two weeks, Week 12): 6.1 pg/mL | % of patients with serum IL-19 concentration ≤ 21 pg/mL (PsA patients; Q2W, IL-19 at week 4): 97.5% (79/81) | % patients with serum IL-19 concentration ≤ 21 pg/mL achieving at least PASI 75 (PsA patients; [7]): 72.2% (57/79) | % patients with serum IL-19 concentration ≤ 21 pg/mL not achieving at least PASI 75 (PsA patients; [7]): 27.8% (22/79) | % of patients with serum IL-19 concentration ≤ 21 pg/mL (PsA patients; Q2W, IL-19 at week 12): 96.7% (87/90) | % patients with serum IL-19 concentration ≤ 21 pg/mL achieving at least PASI 75 (PsA patients; [8]): 73.1% (57/78) | % patients with serum IL-19 concentration ≤ 21 pg/mL not achieving at least PASI 75 (PsA patients; [8]): 26.9% (21/78) | IL-19 (geometric mean) serum levels (PsA patients; Q4W: 160 mg at baseline, then 80 mg every four weeks, Week 0 (baseline)): 31.3 pg/mL | IL-19 (geometric mean) serum levels (PsA patients; Q4W: 160 mg at baseline, then 80 mg every four weeks, Week 4): 7.6 pg/mL | IL-19 (geometric mean) serum levels (PsA patients; Q4W: 160 mg at baseline, then 80 mg every four weeks, Week 12): 7.3 pg/mL | % of patients with serum IL-19 concentration ≤ 21 pg/mL (PsA patients; Q4W, IL-19 at week 4): 90.8% (79/87) | % patients with serum IL-19 concentration ≤ 21 pg/mL achieving at least PASI 75 (PsA patients; [9]): 73.4% (58/79) | % patients with serum IL-19 concentration ≤ 21 pg/mL not achieving at least PASI 75 (PsA patients; [9]): 26.6% (21/79) | % of patients with serum IL-19 concentration ≤ 21 pg/mL (PsA patients; Q4W, IL-19 at week 12): 93.5% (87/93) | % patients with serum IL-19 concentration ≤ 21 pg/mL achieving at least PASI 75 (PsA patients; [10]): 74.1% (60/81) | % patients with serum IL-19 concentration ≤ 21 pg/mL not achieving at least PASI 75 (PsA patients; [10]): 25.9% (21/81) | change of serum IL-19 in words (PsA patients; both ixekizumab treatment groups, sustained over the 12 week treatment): lowering of IL-19 to near normal levels after 4 weeks

From patent US12459997B2, “Compounds and methods targeting interleukin-19” (Eli Lilly and Company, priority 2018, dated 2025)
